Assay results reported in EP0565593B1, “REDUCING PESTICIDAL INTERACTIONS IN CROPS” (priority 1990, dated 1992).
Several values for one entry are separate records, joined by “and”; a condition that tells them apart may be missing. Equal entries are not always repeated. Where two headings read alike, the source gives them in different places.

Key:
[1] = tested on: Shattercane (SHCA); type: in vivo; conditions: […]
[2] = tested on: Velvetleaf (VELE); type: in vivo, Abutilon theophrasti; conditions: […]
[3] = tested on: Giant foxtail (GIFT); experiment: whole plant or invertebrate; type: in vivo
[4] = tested on: Velvetleaf (VELE); experiment: whole plant or invertebrate; type: in vivo, Abutilon theophrasti
[5] = tested on: Corn; experiment: Greenhouse test Procedure VII: biocide and antidote in furrow, herbicide POE (Examples 39-42, 48-50, 56-58; Tables 38-41, 47-49, 55-57); type: in vivo; conditions: Herbicide No. 8 0.28 Kg/Ha POE + COUNTER 15G 227 g/305 m + antidote in furrow
From the text: This procedure describes interaction among herbicide, biocide and antidote when the biocide and the antidote is applied to a soil furrow containing crop seed before emergence of the crop and the herbicide is applied after emergence of the crop and weeds. The soil and planting depth was described in Procedure IV. The containers for comparison, the biocide and antidote applications to soil furrows were described in Procedure VI. In this procedure, the seed beds of the first, second, third and fourth containers are covered by soil layers not treated with herbicide. The containers were then placed on a bench in a greenhouse and subirrigated as required for the duration of the test. The herbicide, dispersed or dissolved in water containing 0.25% v/v nonionic surfactant (X-77) was applied by a track sprayer (187 L/ha) to the emerged plants of the second, third and fourth containers about five days after planting. All treatments were run in duplicate. Plant response was observed according to Procedure IV. Variations in this procedure will be noted in the examples.
In this example, tests were conducted according to Procedure VII for the POE application of the herbicides following in-furrow application of COUNTER® 15G insecticide (BIOCIDE No. 1) and the antidote on the pre-planted test seeds. In this test, the herbicides were Nos. 1 (MON-12000), 10 (ALLY®) and #4 (HARMONY®) and the Antidote Nos. 1, 7, 12 and 33.
These in-furrow treatments comprised a 50-50 mix of blended granules of COUNTER with and without 5G granular antidotes at 7.4 + 7.4 mg/cm or 1.1 + 0.37 mg active ingredient (a.i.)/cm. The in-furrow initiation of the test was followed five (5) days later with POE application of the herbicides; observations were made eight (8) days later.
In another test, conducted simultaneously with that in Example 39, Herbicide Nos. 5 (chlorimuron ethyl, active ingredient in CLASSIC® herbicide), 7 (nicosulfuron, active ingredient in ACCENT® herbicide) and 15 (tribenuron methyl, active ingredient in EXPRESS® herbicide) were substituted as test herbicides.
In this example, using the same procedure as above, the following imidazolinone herbicides were used with the same insecticide/biocide and antidotes as above: Herb. No. 16 (imazaquin, a.i. in SCEPTER® herbicide; No. 19 (Code No. AC 222293, a.i. in ASSERT® herbicide); No. 6 (imazethapyr, a.i. in PURSUIT® herbicide and No. 18 (imazapyr, a.i. in ARSENAL® herbicide). Test results are shown in Table 40. Table 40
This example describes the testing of the above antidotes used in Examples 39-41 to safen negative synergy interactions between representative species of the class of herbicidal compounds identified as azolopyrimidine sulfonamides and COUNTER 15G. The same procedure used in the above examples was conducted in this test. In this test, the herbicides were formulated in 17% acetone and 83% water with 0.25% v/v X-77 surfactant.
In these tests (according to Procedure VII) the safeners in solution with acetone were applied in furrow to the soil, followed by COUNTER 15G granules at 227 g/305 m (8 oz./1000'). Applications were made in alternate rows in two separate 13.7 cm x 27.7 cm pans containing Dupo silt loam. Pans were seeded 1.3 cm deep, placed on benches in a greenhouse and subirrigated. BEACON was formulated in water with 0.25% v/v X-77 surfactant and applied by track sprayer at a rate of 187 L/Ha (20 gal/A). Weed species in this test were giant foxtail, shattercane and velvetleaf. The herbicide was applied five (5) days after PPI initiation and observation of test result (shown in Table 47) made eight (8) days later.
In Table 47 COUNTER 15G is abbreviated as "C" and the antidotes as "A" in the column headings which indicate the "C + A" ratios used in the tests. Control and COUNTER treatments are average of four (4) replications and COUNTER + Antidote treatments, average of 2 reps. […]

[6] = tested on: Corn; conditions: […]
[7] = tested on: Corn
[8] = tested on: Corn; experiment: Greenhouse test, combination of Procedures II and III: insecticide in-furrow or in cover layer, herbicide and antidote incorporated in cover layer (Examples 1-3, 6; Tables 1-3, 6); type: in vivo; conditions: for % Injury Corn: 3 weeks
[9] = tested on: velvetleaf (Abutilon theophrasti); experiment: Greenhouse test, combination of Procedures II and III (Examples 1, 2; Tables 1, 2); type: in vivo; conditions: 3 weeks
[10] = observed 8 days later (Table 32)
[11] = observed 8 days later (Table 33)
[12] = […], PPI, 14 days after PPI (Table 34)
[13] = Ex. 2: Insecticide 1 (0.23 Kg/Ha) + Herbicide 9 2.24 Kg/Ha
[14] = Ex. 2: Insecticide 2 3.36 Kg/Ha + Herbicide 9 2.24 Kg/Ha
[15] = Ex. 2: Insecticide 2 3.36 Kg/Ha + Herbicide 2 4.48 Kg/Ha
[16] = observed 7 days after POE (Table 35)
[17] = observed 7 days after POE (Table 36)
[18] = observed 9 days later (Table 29)
[19] = observed 9 days later (Table 30)
[20] = […], PPI, 13 days after PPI (Table 31)

## CCSC(=O)COC(c1ccccc1)c1ccccc1 [compound 51]
[1]; [10]
  % Inhibition SHCA: 80%
[1]; [11]
  % Inhibition SHCA: 35%
[2]; [10]
  % Inhibition VELE: 85%
[2]; [11]
  % Inhibition VELE: 70%
[3]; [12]
  % Inhibition GIFT: 65%
[4]; [12]
  % Inhibition VELE: 90%
[5]; C:A ratio 5
  % Corn Inhibition C:A Ratios 5: 0%
[5]; C:A ratio 10
  % Corn Inhibition C:A Ratios 10: 5%
[5]; C:A ratio 20
  % Corn Inhibition C:A Ratios 20: 3%
[5]; C:A ratio 40
  % Corn Inhibition C:A Ratios 40: 8%
[5]; C:A ratio 80
  % Corn Inhibition C:A Ratios 80: 10%
[5]; C:A ratio 160
  % Corn Inhibition C:A Ratios 160: 10%
[6]; [10]
  % Inhibition Corn: 0%
[6]; [11]
  % Inhibition Corn: 30%
[7]; [12]
  % Inhibition Corn: 25%

## CCNc1nc(Cl)nc(NC(C)C)n1 [Herbicide No. 9, 2-Chloro-4-(ethylamino)-6-(isopropylamino)-S-triazine, reference compound]
[8]; [13]
  % Injury Corn: 3%
[8]; [14]
  % Injury Corn: 0%
[8]; Ex. 2: combination of the insecticides (Nos. 1, 2) with atrazine
  injury to corn: did not appear to be any significant injury
[8]; Ex. 3: Herbicide 9 2.24 Kg/Ha
  % Injury Corn: 0%
[8]; Ex. 3: Insecticide 3 (227 g) + Herbicide 9 2.24 Kg/Ha
  % Injury Corn: 0%
[8]; Ex. 3: Insecticide 4 (227 g) + Herbicide 9 2.24 Kg/Ha
  % Injury Corn: 0%
[9]; [13]
  % Injury VELE: 88%
[9]; [14]
  % Injury VELE: 30%

## CCOCN(C(=O)CCl)c1c(C)cccc1CC [Herbicide No. 2, 2-Chloro-2'-ethyl-6'-methyl-N-(ethoxymethyl)acetanilide, reference compound]
[8]; Ex. 2: Insecticide 1 0.23 Kg/305m (ditto mark) + Herbicide 2 4.48 Kg/Ha (so in the source)
  % Injury Corn: 66% and 93%
[8]; [15]
  % Injury Corn: 76%
[8]; Ex. 3: Herbicide 2 4.48 Kg/Ha
  % Injury Corn: 78%
[8]; Ex. 3: Insecticide 3 (227 g) + Herbicide 2 4.48 Kg/Ha
  % Injury Corn: 83%
[8]; Ex. 3: Insecticide 4 (227g) + Herbicide 2 4.48 Kg/Ha
  % Injury Corn: 95%
[9]; [15]
  % Injury VELE: 35%

## COC(=O)ON=C(N)COc1cccc2cccnc12 [compound 76]
[1]; [16]
  % Inhibition SHCA: 65%
[1]; [17]
  % Inhibition SHCA: 30%
[2]; [16]
  % Inhibition VELE: 80%
[2]; [17]
  % Inhibition VELE: 70%
[3]; in vivo
  % Inhibition GIFT: 70%
[4]; in vivo
  % Inhibition VELE: 90%
[6]; [16]
  % Inhibition Corn: 55%
[6]; [17]
  % Inhibition Corn: 55%
[7]; in vivo
  % Inhibition Corn: 65%

## Cc1cccc(C)c1C(OCC(=O)O)c1c(C)cccc1C [compound 56]
[1]; [10]
  % Inhibition SHCA: 75%
[1]; [11]
  % Inhibition SHCA: 30%
[2]; [10]
  % Inhibition VELE: 85%
[2]; [11]
  % Inhibition VELE: 75%
[3]; [12]
  % Inhibition GIFT: 75%
[4]; [12]
  % Inhibition VELE: 85%
[6]; [10]
  % Inhibition Corn: 60%
[6]; [11]
  % Inhibition Corn: 60%
[7]; [12]
  % Inhibition Corn: 65%

## N#CCCOC(=O)COC(c1ccccc1)c1ccccc1 [compound 52]
[1]; [10]
  % Inhibition SHCA: 70%
[1]; [11]
  % Inhibition SHCA: 25%
[2]; [10]
  % Inhibition VELE: 85%
[2]; [11]
  % Inhibition VELE: 75%
[3]; [12]
  % Inhibition GIFT: 65%
[4]; [12]
  % Inhibition VELE: 85%
[6]; [10]
  % Inhibition Corn: 20%
[6]; [11]
  % Inhibition Corn: 45%
[7]; [12]
  % Inhibition Corn: 40%

## CC1(C)OC(c2cc3ccccc3o2)CN1C(=O)C(Cl)Cl (stereo not shown) [compound 38]
[1]; [18]
  % Inhibition SHCA: 80%
[1]; [19]
  % Inhibition SHCA: 25%
[2]; [18]
  % Inhibition VELE: 95%
[2]; [19]
  % Inhibition VELE: 70%
[3]; [20]
  % Inhibition GIFT: 70%
[4]; [20]
  % Inhibition VELE: 85%
[6]; [18]
  % Inhibition Corn: 20%
[6]; [19]
  % Inhibition Corn: 45%
[7]; [20]
  % Inhibition Corn: 50%

## C=CCC(C)(C#N)Sc1ccc(C(C)C)cc1 (stereo not shown) [compound 75]
[1]; [16]
  % Inhibition SHCA: 70%
[1]; [17]
  % Inhibition SHCA: 40%
[2]; [16]
  % Inhibition VELE: 85%
[2]; [17]
  % Inhibition VELE: 75%
[3]; in vivo
  % Inhibition GIFT: 75%
[4]; in vivo
  % Inhibition VELE: 85%
[6]; [16]
  % Inhibition Corn: 70%
[6]; [17]
  % Inhibition Corn: 65%
[7]; in vivo
  % Inhibition Corn: 75%

## O=C(COC(c1ccccc1)c1ccccc1)Oc1cccc([N+](=O)[O-])c1 [compound 57]
[1]; [10]
  % Inhibition SHCA: 80%
[1]; [11]
  % Inhibition SHCA: 35%
[2]; [10]
  % Inhibition VELE: 85%
[3]; [12]
  % Inhibition GIFT: 70%
[4]; [12]
  % Inhibition VELE: 80%
[6]; [10]
  % Inhibition Corn: 15%
[6]; [11]
  % Inhibition Corn: 65%
[7]; [12]
  % Inhibition Corn: 65%

## O=C(O)COc1cc(C(F)(F)F)cc(C(F)(F)F)c1 [compound 71]
[1]; [16]
  % Inhibition SHCA: 65%
[1]; [17]
  % Inhibition SHCA: 30%
[2]; [16]
  % Inhibition VELE: 85%
[2]; [17]
  % Inhibition VELE: 75%
[3]; in vivo
  % Inhibition GIFT: 70%
[4]; in vivo
  % Inhibition VELE: 90%
[6]; [16]
  % Inhibition Corn: 20%
[6]; [17]
  % Inhibition Corn: 45%
[7]; in vivo
  % Inhibition Corn: 30%

## CC1Cc2ccccc2C(C)N1C(=O)C(Cl)Cl (stereo not shown) [compound 26]
[1]; [18]
  % Inhibition SHCA: 70%
[1]; [19]
  % Inhibition SHCA: 35%
[2]; [18]
  % Inhibition VELE: 90%
[2]; [19]
  % Inhibition VELE: 75%
[3]; [20]
  % Inhibition GIFT: 75%
[4]; [20]
  % Inhibition VELE: 80%
[6]; [18]
  % Inhibition Corn: 40%
[6]; [19]
  % Inhibition Corn: 50%
[7]; [20]
  % Inhibition Corn: 65%
